“And” between values parts separate entries of the source, which are not always exact repeats. Equal entries are not always repeated. Where two headings read alike, the source gives them in different places.
Tests used:
[1] = Dosage of RM-581 in tumors and plasma (LC-MS/MS); format: in vivo, mice; settings: for RM-581 in Plasma / RM-581 in Tumor / concentration at 3 h: 3 h after last treatment; for concentration at 3 h / Kp at 3 h: nude, mouse; for Kp at 3 h: tumor/plasma, ng/g = ng/mL assumed, read-out: Concentration Index (Tumor/Plasma)
Procedure: The mice were weighed at the start and end of the protocol. Tumor area (mm^2) was calculated twice a week using two perpendicular diameters (L and W), which were recorded using a caliper, and the formula L/2 × W/2 × π. The area measured on the first day of treatment was fixed at 100%. At the end of the studies and 3 h after the last treatment, the mice were terminally anesthetized, and their final body weights were measured. Tumors, liver, kidney, and total prostate were collected from mice during necropsy, while blood was collected by cardiac puncture. Tissues and plasma were immediately frozen at −80 °C until analysis.

LAPC-4 cells [2] = test: LAPC-4 cell viability proliferation and combination index assays (MTS, 6 days); format: cell-based, human
Procedure: LAPC-4 cells (1 × 10^4 cells/well) were seeded in triplicate in 96-well plates in IMDM (Iscove’s modified Dulbecco’s medium) (90 μL) supplemented (v/v) with 5% fetal FBS, 1% L-glutamine, 1% insulin, and 1% penicillin/streptomycin. The cells were incubated at 37 °C in a 5% CO2 humidified atmosphere for 24 h. […] After 6 days of incubation, the cell proliferation was determined by adding 10 µL of MTS followed by incubation at 37 °C for 4 h. Plates were then analyzed at 490 nm using a Tecan M-200 microplate reader (Männedorf, Switzerland). Using GraphPad Prism 7 software, the IC50 values were calculated. The values represent the average of two independent experiments performed in triplicate. According to the Chou–Talalay method and using the following formula, the CI (combination) was calculated. CI=(D)1/(DX)1+(D)2/(DX)2
Denominators (DX)l and (DX)2 are the doses of individual drugs required to achieve a given effect level, and numerators (D)1 and (D)2 are the concentrations of each drug present in combination to trigger the same effect level. When the drugs interact additively, CI = 1, but a CI < 1 indicates a synergistic interaction, and a CI > 1 indicates an antagonistic effect.

LAPC-4 cells [3] = test: Apoptosis characterization by flow cytometry (annexin-V/PI); format: cell-based, human; settings: 72 h
Procedure: This experiment was performed with LAPC-4 cells (3 × 10^5) following the protocol previously reported for PC-3 cells. After the detection of annexin-V and propidium iodide fluorescence, dual parametric dot plots allowed us to calculate the percentage of each cell type: (1) non-apoptotic live cells (annexin-V-negative/PI-negative) in the lower left quadrant; (2) early apoptotic cells (annexin-V-positive/PI-negative) in the lower right quadrant; (3) late apoptotic cells (annexin-V-positive/PI-positive) in the upper right quadrant; and (4) necrotic cells (annexin-V-negative/PI-positive) in the upper left quadrant.

DU-145 = test system: DU-145; design: method as in PMID 34681843; settings: DU-145, AR negative, three days, MTS; cited from earlier work
LAPC-4 xenografts [4] = test: Cholesterol determination in tumor, liver, plasma (kit, method A); format: in vivo, mice; settings: 10 mg/kg PO, NS vs CTL
Procedure: A cholesterol quantification kit provided by Sigma-Aldrich (Catalog Number MAK043) was used following the manufacturer’s instructions to determine the concentration of total cholesterol, free cholesterol, and cholesteryl ester in samples. The cholesterol contents were measured in samples from two different protocols. […] Secondly, in tumor, liver, and plasma obtained at the end of the LAPC-4 xenograft experiment (control group and the group treated with RM-581 at 10 mg/kg/PO).

LAPC-4 xenografts [5] = test: Cholesterol/lipid panel in plasma (method B, hospital laboratory); format: in vivo, mice
Procedure: Total cholesterol, triglycerides, cholesterol-HDL (high-density lipoproteins), cholesterol-LDL (low-density lipoproteins), cholesterol non-HDL, and the ratio of total cholesterol/cholesterol-HDL were determined in the plasma of mice treated PO with RM-581 (3, 10, and 30 mg/kg) or abiraterone acetate (60 mg/kg). Analyses were performed at the CHU de Québec/L’Enfant-Jésus (Medical Hospital Laboratory; Project N°: 9014625056) using a Cobas Lipid Panel from Roche.

PC-3 = test system: PC-3; design: method as in PMID 34681843; settings: PC-3, AR negative, three days, MTS; cited from earlier work
[6] = Tolerated dose of RM-581 in mice (dose escalation); format: in vivo
Procedure: It is important to note that animal death is not an accepted endpoint for CCAC. RM-581 was first dissolved in DMSO, and PG was added to obtain a final 8% concentration of co-solvent DMSO. The injected volume was 0.1 mL, but the number of injections ranged from 1, 2, or 3 to obtain the expected dose. Each week for […] consecutive weeks, an increased dose (60, 120, 240, 360, 480, 600, or 720 mg/kg) of RM-581 was administered by gavage (PO), and the mice were weighed and observed for 7 days to notice any signs of toxicity. The protocol was applied to four groups (Gr) divided as follows: Gr-1: 5 female mice received the vehicle only; Gr-2: 5 male mice received the vehicle only; Gr-3: 5 female mice treated with RM-581; and Gr-4: 5 male mice treated with RM-581.

22Rv1 = test: PCa cell viability proliferation screening (MTS), 22Rv1; format: cell-based; settings: Homo sapiens, 72 h, 22Rv1, AR positive, three days
Procedure: VCaP (4 × 10^4 cells/well) were seeded in 96-well plates in DMEM media supplemented with 10% fetal bovine serum (FBS), penicillin, streptomycin, and sodium pyruvate. 22Rv1 cells (2 × 10^3 cells/well) and LAPC-4 cells (6 × 10^3 cells/well) were seeded in 96-well plates in RPMI media supplemented with 10% FBS, penicillin, streptomycin, and sodium pyruvate. The cells were incubated at 37 °C in a 5% CO2 humidified atmosphere for 24 h before treatment with multiple concentrations of RM-581 dissolved in dimethyl sulfoxide (DMSO). The concentrations used were between 0.01 μM and 50 μM. Treatment lasted for 3 days for all the cell lines except VCaP cells, which were treated for 7 days due to slower proliferation rates. At the end of the assay, 20 μL of MTS (Cell Titer 96 Aqueous, Promega, Nepean, ON, Canada) were added to each well, and the mixture was incubated for 4 h at 37 °C. The plates were subsequently analyzed at 490 nm using a Tecan M-200 microplate reader (Männedorf, Switzerland).

In the case of `C#C[C@]1(O)CC[C@H]2[C@@H]3CCc4cc(OC)c(N5CCN(C(=O)[C@@H]6CCCN6C(=O)c6ccc7ccccc7n6)CC5)cc4[C@H]3CC[C@@]21C` [RM-581], the “RM-581 in Plasma” value ([1]; 3 mg/kg PO) is reported as 15 ng/mL and 0.023 µM, the “RM-581 in Tumor” value ([1]; 3 mg/kg PO) is reported as 50 ng/g and 0.077 µM and the “RM-581 in Plasma” value ([1]; 10 mg/kg PO) is reported as 30 ng/mL and 0.046 µM. The “RM-581 in Tumor” value ([1]; 10 mg/kg PO) was 300 ng/g and 0.464 µM, the “RM-581 in Plasma” value ([1]; 30 mg/kg PO) was 171 ng/mL and 0.265 µM and the “RM-581 in Tumor” value ([1]; 30 mg/kg PO) was 940 ng/g and 1.465 µM. For the same compound, the concentration at 3 h ([1]; plasma, 30 mg/kg PO, read-out: RM-581 in Plasma) was 171 ng/mL, the concentration at 3 h ([1]; plasma, PO, read-out: RM-581 in Plasma) was 15 ng/mL and the Kp at 3 h ([1]; 3 mg/kg PO) was 3.3. It also gave a Kp at 3 h ([1]; 10 mg/kg PO) of 10, a Kp at 3 h ([1]; 30 mg/kg PO) of 5.5 and a concentration at 3 h ([1]; tumor, 30 mg/kg PO, read-out: RM-581 in Tumor) of 940 ng/g. It also gave a concentration at 3 h ([1]; tumor, PO, read-out: RM-581 in Tumor) of 50 ng/g, an IC50 (LAPC-4 cells [2]; Homo sapiens, LAPC4, 144 h, LAPC-4, six days of treatment, read-out: IC50, single experiments (Figure 2A)) of 450 nM and an IC50 (LAPC-4 cells [2]; Homo sapiens, LAPC4, 144 h, LAPC-4, six days, slightly different culture conditions, read-out: IC50, single experiments (Figure 3)) of 510 nM. It also gave an IC50 (LAPC-4 cells [2]; Homo sapiens, LAPC4, 144 h, LAPC-4, six days, slightly different culture conditions, read-out: Mean IC50 (Figure 3)) of 570 ± 140 nM, an IC50 (LAPC-4 cells [2]; Homo sapiens, LAPC4, 144 h, LAPC-4, six days, single drugs and 1:1 combinations, read-out: IC50 (Figure 2B)) of 560 nM and an IC50 (LAPC-4 cells [2]; Homo sapiens, LAPC4, LAPC-4, read-out: IC50 in LAPC-4 cells, approximate summary value) of ~500 nM. The IC50 (LAPC-4 cells [2]; LAPC-4, six days of treatment, read-out: IC50, single experiments (Figure 2A)) was 300 nM and 550 nM, the IC50 (LAPC-4 cells [2]; LAPC-4, six days, slightly different culture conditions, read-out: IC50, single experiments (Figure 3)) was 470 nM and 730 nM and the “early and late apoptotic cells” value (LAPC-4 cells [3]; 2 to 50 µM) was “significant and increasing proportion”. The necrotic cells (LAPC-4 cells [3]; 30 and 50 µM) was “very low and non-significant”, the viable cells (LAPC-4 cells [3]; 30 and 50 µM, dropped from 92%) was 20% and the IC50 (DU-145) was 4400 nM. For the same compound, the “F-CHOL (free cholesterol), liver” value (LAPC-4 xenografts [4]) was 2410 ± 10 (NS) µg/g, the “F-CHOL (free cholesterol), plasma” value (LAPC-4 xenografts [4]) was 403 ± 120 (NS) µg/mL and the “F-CHOL (free cholesterol), tumor” value (LAPC-4 xenografts [4]) was 3270 ± 236 (NS) µg/g. The “T-CHOL (total cholesterol), liver” value (LAPC-4 xenografts [4]) was 2440 ± 475 (NS) µg/g, the “T-CHOL (total cholesterol), plasma” value (LAPC-4 xenografts [4]) was 1820 ± 500 (NS) µg/mL and the “T-CHOL (total cholesterol), tumor” value (LAPC-4 xenografts [4]) was 4543 ± 2476 (NS) µg/g. For the same compound, the “T-CHOL (total cholesterol), plasma” value (LAPC-4 xenografts [5]; 10 mg/kg PO, NS vs CTL) was 1182 ± 338 (NS) µg/mL, the “plasma triglycerides, cholesterol-HDL, -LDL, non-HDL, ratio total cholesterol/cholesterol-HDL vs control” value (LAPC-4 xenografts [5]; Figure S3) was “no significant difference” and the IC50 (PC-3) was 1200 nM. The therapeutic index ([6]; assuming effective dose of 30 mg/kg) was > 24, the “signs of toxicity, dose escalation” value ([6]; normal male and female mice, 60, 120, 240, 360, 480, 600 and 720 mg/kg PO weekly) was “no signs of toxicity” and the “body weight, treated vs control groups” value ([6]; normal mice, dose escalation up to 720 mg/kg PO, 7 weeks) was “no significant body weight difference”. It also gave an IC50 (22Rv1) of 1380 nM.
